Reference: ChEMBL document CHEMBL1158192, “Niruriside, a new HIV REV/RRE binding inhibitor from Phyllanthus niruri” (J Nat Prod, 1996)
Activity calls are given as the source filed them. The rule behind the calls is not given here.

How the values were obtained:
[1] = Inhibition of HIV1 REV protein binding to HIV1 [P33]RRE RNA by liquid scintillation assay; parameters: species or system Human immunodeficiency virus 1
[2] = Ratio of IC50 for R17 activity to IC50 for HIV1 Rev activity
[3] = test system: Human immunodeficiency virus 1; assay: Antiviral activity against HIV1 RF in CEM-SS cells assessed as cell protection against virus infection up to 260 uM by XTT assay; assay type: functional, organism-based
[4] = Inhibition of R17 coat protein binding to [33P]labeled R17 operator RNA

With `CC(=O)OC[C@H]1O[C@H](O[C@]2(COC(C)=O)O[C@H](COC(=O)/C=C/c3ccccc3)[C@@H](O)[C@@H]2OC(=O)/C=C/c2ccccc2)[C@H](OC(C)=O)[C@@H](O)[C@@H]1OC(C)=O` [NIRURIDE] the IC50 [1] was 3.3 µM, the Ratio IC50 [2] was > 40 and the Activity [3] was “inactive”. The IC50 [4] was > 130 µM.
